Columns and labels:
[1] = In vivo pharmacokinetics and brain penetration, single dose, mouse; details: for clearance / half-life / Vd / Cmax: C57BL6, blood; for clearance / half-life / Vd: intravenous, 0.5 mg/kg; for clearance / half-life / Vd / Cmax / Kp / Fabs (%): Mouse; for clearance / half-life / Vd / Cmax / Kp: single dose; for half-life: read-out: Elimination Half-life (converted); for Vd: read-out: Vdss; for Cmax: oral, 5 mg/kg, read-out: Cmax (maximum concentration in blood or plasma); for Kp: C57BL6, brain / blood, averaged over collection time points, read-out: BB_Ratios (brain-to-blood concentration ratio); for Fabs (%): single dose IV/PO
Method: (§1) B. In Vivo Pharmacokinetics and Brain Penetration
(§2) The pharmacokinetic assessment was carried out in rodents (e.g. Sprague-Dawley rats or C57BL6 mice) after a single dose administration by IV (e.g., 0.5 mg/kg) or PO (e.g., 5 mg/kg). Biological samples were collected at pre-determined time points, batch-processed, and the test articles were extracted and quantified with LC-MS, utilizing internal standards and separately prepared calibration curves. Blood (or plasma) concentration to time profiles were acquired for compounds and a selected list is presented in Table 6 with the non-compartmental PK parameters (e.g., peak concentration in circulation (Cmax), absolute bioavailability (Fabs), elimination half-life, clearance (CL), and volume of distribution at steady state (Vdss)). Upon terminal collection, the brains were also collected and homogenized in an extraction buffer, followed by quantification with LC-MS. After brain concentration levels (ng/g of brain tissue) were determined, the mean ratios of the brain-to-blood (BB) concentration (or brain-to-plasma concentration) at various collection time points were averaged, then shown in Table 6 as BB Ratio to indicate the extent of brain penetration.
FIG. 1A is a graph showing in vitro mouse hepatocyte stability on compound #2 (closed circle) and compound #42 (open circle). FIG. 1B is a graph showing blood concentration-time profile of mouse (N=3 per group) after IV administration of 0.5 mg/kg of compound #2 (closed circle) or #42 (open circle), or PO administration of 5 mg/kg of compound #2 (closed triangle) or #42 (open triangle).

[2] = test system: mutant HTT; assay: Mutant HTT assay in induced pluripotent stem cells (iPSC); assay type: cell-based, human; details: HD patient iPSCs, one day incubation; class symbols; read-out: iPSC IC20 (nM) mHTT
Procedure, shortened: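 Huntington's disease patient iPSCs (ND50036) plated at 7,000 cells/well, compound-treated after 48 h for one day in mTeSR1. Lysates normalised by BCA protein, then mutant HTT measured by sandwich ELISA: anti-human HTT capture, biotinylated mutant-HTT-specific detection, streptavidin-HRP/TMB colorimetric readout, interpolated from a standard curve.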

[3] = test system: Huntington's disease patient iPSCs (ND50036); assay: iPSC viability at IC20; assay type: cell-based, human; details: at the concentration of IC20
[4] = In vivo pharmacokinetics and brain penetration, single dose, rat
Method: as §1, §2

[5] = test system: Gmr::HTT97Q fly (mutant HTT, rough eye); assay: HD-Drosophila phenotypic assay (rough eye analysis); assay type: in vivo, Drosophila melanogaster; details: Gmr-HTT97Q flies, compound 10 μM in media
Source text: D. Alleviation of Neuron Degeneration Phenotypes of Mutant HTT in Drosophila HD Models
The Drosophila melanogaster (fruit fly) HD models carry the coding sequence of human HTT exon1 with 97 CAG repeats to mimic mutant HTT of Huntington's disease (HD). The Gmr::HTT97Q fly, expressing mutant HTT primarily in the neurons of Drosophila compound eyes, has a severe degeneration of photoreceptor neurons and the phenotypic trait ‘rough eye’. All of the fly stocks and genetics crosses are maintained at 25° C. on standard cornmeal yeast agar media.
b. Eye Morphology (Rough Eye) Analysis
Fifteen adult male flies (Gmr-HTT97Q/Gmr-HTT97Q or Gmr/Gmr) are crossed with 15 virgin female flies W1118(+/+) in a vial containing standard yeast agar media with the compound in a concentration of 10 μM. Parent-flies are removed from vials at day 7, followed by a collection of newly hatched flies for ‘rough eye’ analysis. The morphology of compound eyes is captured using a Leica DMR upright microscope equipped with a digital camera (CoolSNAP 5.0, Photometrics). To increase the depth of field, imaging software is used to create montage composite images (Helicon Focus, HeliconSoft). A total of 10 flies are collected for analysis in each individual condition, and the biological experiment is conducted three times. DMSO, the reagent solvent of the compound, is included as a control.

[6] = mouse, PO 5 mg/kg, compound #42 versus #2

OCCOCc1ccc(CN[C@@H]2CCCc3c2[nH]c2ccc(Br)cc32)cc1 (single isomer, unassigned) [Compound 28]
clearance [1]: 16.7 mL/min/kg | half-life [1]: 2.4 h | Vd [1]: 3.3 L/kg | Cmax [1]: > 300 nM | Kp [1]: ≥ 1 | Fabs (%) [1]: >70% | IC20 [2]: < 100 nM | iPSC viability at IC20 [3]: + (cell viability is greater than 75% at the concentration of IC20)

OCc1ccc(CNC2CCCc3c2[nH]c2ccc(Br)cc32)cc1 (centres unmarked) [Compound 1]
Kp ([4]; Sprague-Dawley, brain / blood, single dose, averaged over collection time points, read-out: BB_Ratios (brain-to-blood concentration ratio)): ≥ 1 | clearance ([4]; Sprague-Dawley, in vivo, intravenous, single dose): 85 mL/min/kg | Vd ([4]; Sprague-Dawley, in vivo, intravenous, single dose, read-out: Vdss): 12 L/kg | Cmax ([4]; Sprague-Dawley, in vivo, single dose, read-out: Cmax (maximum concentration in blood or plasma)): 100 to 300 nM | half-life ([4]; Sprague-Dawley, in vivo, single dose, read-out: Elimination Half-life (converted)): 1.9 h | Fabs (%) ([4]; single dose IV/PO): <30% | HD-Drosophila Phenotypic assay (rescue of rough eye phenotype) [5]: & (rough eye phenotype of HD flies is rescued by testing compound greater than 40%)

OCc1ccc(CN[C@@H]2CCCc3c2[nH]c2ccc(Br)cc32)cc1 [Compound 2, (R)-(4-(((6-bromo-2,3,4,9-tetrahydro-1H-carbazol-1-yl)amino)methyl)phenyl)methanol]
clearance [1]: 183 mL/min/kg | half-life [1]: 0.8 h | Vd [1]: 11 L/kg | Cmax [1]: < 100 nM | Fabs (%) [1]: <30% | IC20 [2]: < 100 nM | iPSC viability at IC20 [3]: + (cell viability is greater than 75% at the concentration of IC20) | HD-Drosophila Phenotypic assay (rescue of rough eye phenotype) [5]: & (rough eye phenotype of HD flies is rescued by testing compound greater than 40%)

CC(C)(O)c1ccc(CN[C@@H]2CCCc3c2[nH]c2ccc(Br)cc32)cc1 [Compound 31, (R)-2-(4-(((6-bromo-2,3,4,9-tetrahydro-1H-carbazol-1-yl)amino)methyl)phenyl)propan-2-ol]
clearance [1]: 50 mL/min/kg | half-life [1]: 2.6 h | Vd [1]: 9.1 L/kg | Cmax [1]: 100 to 300 nM | Kp [1]: ≥ 1 | Fabs (%) [1]: 30-70% | IC20 [2]: < 100 nM | iPSC viability at IC20 [3]: + (cell viability is greater than 75% at the concentration of IC20)

[2H]C([2H])(O)c1ccc(CN[C@@H]2CCCc3c2[nH]c2ccc(Br)cc32)cc1 [Compound 42, (R)-(4-(((6-bromo-2,3,4,9-tetrahydro-1H-carbazol-1-yl)amino)methyl)phenyl)methan-d2-ol]
clearance [1]: 80 mL/min/kg | half-life [1]: 1.2 h | Vd [1]: 7.2 L/kg | Cmax [1]: 100 to 300 nM | Fabs (%) [1]: <30% | elimination half-life (comparison) ([1]; mouse, IV 0.5 mg/kg, compound #42 versus #2, FIG. 1B): longer | Cmax (comparison) [1, 6]: significantly increased | Fabs (comparison) [1, 6]: significantly increased | CL (comparison) ([1]; mouse, randomized cross-over after 48-hour washout, compound #42 versus #2): slower CL | IC20 [2]: < 100 nM | iPSC viability at IC20 [3]: + (cell viability is greater than 75% at the concentration of IC20)

CS(=N)(=O)c1ccc(CN[C@@H]2CCCc3c2[nH]c2ccc(Br)cc32)cc1 (stereo partly drawn) [Compound 49, (4-((((R)-6-bromo-2,3,4,9-tetrahydro-1H-carbazol-1-yl)amino)methyl)phenyl)(imino)(methyl)-λ^6-sulfanone]
clearance [1]: 55 mL/min/kg | half-life [1]: 1.1 h | Vd [1]: 5.1 L/kg | Cmax [1]: > 300 nM | Kp [1]: ≥ 1 | Fabs (%) [1]: <30% | IC20 [2]: < 100 nM | iPSC viability at IC20 [3]: + (cell viability is greater than 75% at the concentration of IC20)
